Assay results from publication PMC11206519, “Multi-Endpoint Toxicological Assessment of Chrysin Loaded Oil-in-Water Emulsion System in Different Biological Models” (Nanomaterials, 2024).

Test system: D. melanogaster trans-heterozygous mwh+/+flr3 larvae of the ST cross
Experiment: SMART wing spot test, anti-mutagenicity, ST cross
Experimental: The somatic mutation and recombination test, or the wing spot test, using D. melanogaster was employed as an in vivo system to assess the mutagenicity and anti-mutagenicity of chrysin-ES. Two different crosses were conducted: (i) a standard cross (ST) and (ii) a high bioactivation cross (HB). The standard cross larvae were obtained from virgin female of flr3/TM3, Ser crossed with males of mwh/mwh, while the HB cross larvae expressing cytochrome P450 enzymes involved in xenobiotic biotransformation were obtained from virgin females of ORR/ORR; flr^3/In (3LR) TM3, ri p^psep l (3)89Aa bx^34e e Bd^s crossed with males of mwh/mwh. The flies were cultured at a constant temperature of 25 ± 1 °C and 60–70% RH at photoperiod 12:12 (light/dark). To evaluate the mutagenicity of chrysin and chrysin-ES, a hundred larva F1 progenies derived from the above crossing were fed with instant Drosophila medium (Formula 4-24®), Carolina, Burlington, NC, USA) containing chrysin or chrysin-ES (20–120 µg/mL). DI was used as a negative control, while 20 mM urethane (URE) was used as a positive control. The larvae were reared on each medium until pupation at 25 °C. After that, forty wings of surviving flies in each group were collected for mutant analysis. The mutant spots on the wings, including small single spots, large single spots, and twin spots, were counted. The statistical significance was calculated as previously described by Frei and Würgler.
Furthermore, the anti-mutagenicity of the samples was performed by a similar procedure as mentioned above.

[1] = NMU (sodium nitrite 36 mM: methylurea 10 mM) + 20 μg/mL

O=c1cc(-c2ccccc2)oc2cc(O)cc(O)c12 [Chrysin, 5,7-dihydroxyflavone]
Mutant spots per individual (number of spots), Twin (MMC 0.05 mM + 20 μg/mL): 0.35 (14)
Inhibition (%) (MMC 0.05 mM + 40 μg/mL): 30%
Inhibitory Classification (MMC 0.05 mM + 40 μg/mL): Weak
Mutant spots per individual (number of spots), Large Single (MMC 0.05 mM + 40 μg/mL): 1.35 (54)
Mutant spots per individual (number of spots), Small Single (MMC 0.05 mM + 40 μg/mL): 4.98 (199)
Mutant spots per individual (number of spots), Total (MMC 0.05 mM + 40 μg/mL): 6.85 (274)
Mutant spots per individual (number of spots), Twin (MMC 0.05 mM + 40 μg/mL): 0.53 (21)
Inhibition (%) (MMC 0.05 mM + 80 μg/mL): 30%
Inhibitory Classification (MMC 0.05 mM + 80 μg/mL): Weak
Mutant spots per individual (number of spots), Large Single (MMC 0.05 mM + 80 μg/mL): 1.63 (65)
Mutant spots per individual (number of spots), Small Single (MMC 0.05 mM + 80 μg/mL): 4.48 (179)
Mutant spots per individual (number of spots), Total (MMC 0.05 mM + 80 μg/mL): 6.83 (273)
Mutant spots per individual (number of spots), Twin (MMC 0.05 mM + 80 μg/mL): 0.73 (29)
Inhibition (%) (MMC 0.05 mM + 120 μg/mL): 77%
Inhibitory Classification (MMC 0.05 mM + 120 μg/mL): Strong
Mutant spots per individual (number of spots), Large Single (MMC 0.05 mM + 120 μg/mL): 0.58 (23)
Mutant spots per individual (number of spots), Small Single (MMC 0.05 mM + 120 μg/mL): 1.50 (60)
Mutant spots per individual (number of spots), Total (MMC 0.05 mM + 120 μg/mL): 2.25 (90)
Mutant spots per individual (number of spots), Twin (MMC 0.05 mM + 120 μg/mL): 0.18 (7)
Inhibition (%) (MMC 0.05 mM + 120 μg/mL, listed as chrysin): approximately 77%
Inhibition (%) [1]: 89%
Inhibitory Classification [1]: Strong
Mutant spots per individual (number of spots), Large Single [1]: 0.03 (1)
Mutant spots per individual (number of spots), Small Single [1]: 0.15 (6)
Mutant spots per individual (number of spots), Total [1]: 0.23 (9)
Mutant spots per individual (number of spots), Twin [1]: 0.05 (2)
Inhibition (%) (NMU + 40 μg/mL): 91%
Inhibitory Classification (NMU + 40 μg/mL): Strong
Mutant spots per individual (number of spots), Large Single (NMU + 40 μg/mL): 0 (0)
Mutant spots per individual (number of spots), Small Single (NMU + 40 μg/mL): 0.18 (7)
Mutant spots per individual (number of spots), Total (NMU + 40 μg/mL): 0.18 (7)
Mutant spots per individual (number of spots), Twin (NMU + 40 μg/mL): 0 (0)
Inhibition (%) (NMU + 80 μg/mL): 91%
Inhibitory Classification (NMU + 80 μg/mL): Strong
Mutant spots per individual (number of spots), Large Single (NMU + 80 μg/mL): 0 (0)
Mutant spots per individual (number of spots), Small Single (NMU + 80 μg/mL): 0.18 (7)
Mutant spots per individual (number of spots), Total (NMU + 80 μg/mL): 0.18 (7)
Mutant spots per individual (number of spots), Twin (NMU + 80 μg/mL): 0 (0)
Inhibition (%) (NMU + 120 μg/mL): 90%
Inhibitory Classification (NMU + 120 μg/mL): Strong
Mutant spots per individual (number of spots), Large Single (NMU + 120 μg/mL): 0.08 (3)
Mutant spots per individual (number of spots), Small Single (NMU + 120 μg/mL): 0.13 (5)
Mutant spots per individual (number of spots), Total (NMU + 120 μg/mL): 0.20 (8)
Mutant spots per individual (number of spots), Twin (NMU + 120 μg/mL): 0 (0)
Inhibition (%) (URE 20 mM + 20 μg/mL): 94%
Inhibitory Classification (URE 20 mM + 20 μg/mL): Strong
Mutant spots per individual (number of spots), Large Single (URE 20 mM + 20 μg/mL): 0 (0)
Mutant spots per individual (number of spots), Small Single (URE 20 mM + 20 μg/mL): 0.23 (9)
Mutant spots per individual (number of spots), Total (URE 20 mM + 20 μg/mL): 0.23 (9)
Mutant spots per individual (number of spots), Twin (URE 20 mM + 20 μg/mL): 0 (0)
Inhibition (%) (URE 20 mM + 40 μg/mL): 91%
Inhibitory Classification (URE 20 mM + 40 μg/mL): Strong
Mutant spots per individual (number of spots), Large Single (URE 20 mM + 40 μg/mL): 0.03 (1)
Mutant spots per individual (number of spots), Small Single (URE 20 mM + 40 μg/mL): 0.33 (13)
Mutant spots per individual (number of spots), Total (URE 20 mM + 40 μg/mL): 0.35 (14)
Mutant spots per individual (number of spots), Twin (URE 20 mM + 40 μg/mL): 0 (0)
Inhibition (%) (URE 20 mM + 80 μg/mL): 91%
Inhibitory Classification (URE 20 mM + 80 μg/mL): Strong
Mutant spots per individual (number of spots), Large Single (URE 20 mM + 80 μg/mL): 0 (0)
Mutant spots per individual (number of spots), Small Single (URE 20 mM + 80 μg/mL): 0.35 (14)
Mutant spots per individual (number of spots), Total (URE 20 mM + 80 μg/mL): 0.35 (14)
Mutant spots per individual (number of spots), Twin (URE 20 mM + 80 μg/mL): 0 (0)
Inhibition (%) (URE 20 mM + 120 μg/mL): 86%
Inhibitory Classification (URE 20 mM + 120 μg/mL): Strong
Mutant spots per individual (number of spots), Large Single (URE 20 mM + 120 μg/mL): 0.03 (1)
Mutant spots per individual (number of spots), Small Single (URE 20 mM + 120 μg/mL): 0.55 (22)
Mutant spots per individual (number of spots), Total (URE 20 mM + 120 μg/mL): 0.56 (23)
Mutant spots per individual (number of spots), Twin (URE 20 mM + 120 μg/mL): 0 (0)
